Data reported in publication PMC10766964, “Copper-catalyzed synthesis of pyrazolo[1,5-a]pyrimidine based triazole-linked glycohybrids: mechanistic insights and bio-applications” (Scientific Reports, 2024).

System: MDA-MB-231 (human breast cancer) cell line
Assay: MTT cell viability assay in MDA-MB-231 cells
Type: cell-based
Conditions: Table 2, MDA-MB-231, MTT, 72 h, read-out: Cell viability (%) ± SD
Experimental: Thus, we screened the synthesized library of pyrazolo[1,5-a]pyrimidin-7-ols 4a–4i. Anticancer activity (in terms of growth inhibition/decreased cell viability with respect to control) of all synthesized compounds (n = 9) was investigated by MTT assay in MDA-MB-231 (human breast cancer) cell line at different concentrations for 72 h. […] Thus, it was aimed to investigate the anticancer activity of a synthesized library of triazole-linked glycohybrids of pyrazolo[1,5-a]pyrimidines. […] The MTT assay was used to investigate the anticancer activity of twenty-seven synthesized compounds on the growth inhibition and decrement in cell viability of MDA-MB-231 (human breast cancer). Different concentrations were tested for 72 h, and the results were compared to a control. MDA-MB-231, a human breast cancer cell line, was cultured under standard conditions. Specifically, they were grown in Dulbecco’s Modified Eagle’s Medium (DMEM) supplemented with 10% heat-inactivated Fetal Bovine Serum (FBS) and 1% penicillin–streptomycin. The cells were maintained as a monolayer in a 100 mm culture plate and were used for experiments before reaching their 8th passage. Subculturing was performed every third-day using trypsin EDTA treatment. All incubation and maintenance procedures were carried out in a humidified CO2 incubator at 37 °C. To evaluate cell viability, the MTT assay was conducted following standard procedures. After 72 h of cell incubation with or without each compound, cell viability was assessed using MTT (3-(4,5-dimethylthiazol-2-yl)-2,5-diphenyltetrazolium bromide), which is a colorimetric method for determining the number of viable cells in various assays including proliferation, cytotoxicity, or chemosensitivity. The MTT reagent was added to the cells after removal of the medium and incubated for 3 h at 37 °C in the CO2 incubator. The formazan product, which is […] in the tissue culture medium, was dissolved in DMSO, and the absorbance of the formazan product was directly measured at 595 nm using a multimode plate reader without additional processing. The absorbance values are directly proportional to the number of viable cells in culture. The percentage of viable cells in each group was determined relative to the untreated control cells.

| Compound | viability at 10 µM [%] | viability at 25 µM [%] | viability at 50 µM [%] |
| --- | --- | --- | --- |
| CC(=O)OC[C@H]1O[C@@H](n2cc(COc3cc(-c4ccc(C(C)C)cc4)nc4ccnn34)nn2)[C@H](OC(C)=O)[C@@H](OC(C)=O)[C@@H]1OC(C)=O [Compound 9g, (2R,3R,4S,5R,6R)-2-(acetoxymethyl)-6-(4-(((5-(4-isopropylphenyl)pyrazolo[1,5-a]pyrimidin-7-yl)oxy)methyl)-1H-1,2,3-triazol-1-yl)tetrahydro-2H-pyran-3,4,5-triyl triacetate] | 110 ± 13.5 | 103 ± 3.51 | 68.5 ± 17.7 |
| CC(=O)OC[C@H]1O[C@@H](n2cc(COc3cc(-c4ccc5c(c4)OCO5)nc4ccnn34)nn2)[C@H](OC(C)=O)[C@@H](OC(C)=O)[C@@H]1OC(C)=O [Compound 9i, (2R,3R,4S,5R,6R)-2-(acetoxymethyl)-6-(4-(((5-(benzo[d][1,3]dioxol-5-yl)pyrazolo[1,5-a]pyrimidin-7-yl)oxy)methyl)-1H-1,2,3-triazol-1-yl)tetrahydro-2H-pyran-3,4,5-triyl triacetate] | 85.1 ± 4.09 | 82.5 ± 2.58 | 80.4 ± 7.36 |
| CC(=O)OC[C@H]1O[C@@H](n2cc(COc3cc(-c4ccc(C)cc4)nc4ccnn34)nn2)[C@H](OC(C)=O)[C@@H](OC(C)=O)[C@H]1OC(C)=O [Compound 10a, (2R,3S,4S,5R,6R)-2-(acetoxymethyl)-6-(4-(((5-(p-tolyl)pyrazolo[1,5-a]pyrimidin-7-yl)oxy)methyl)-1H-1,2,3-triazol-1-yl)tetrahydro-2H-pyran-3,4,5-triyl triacetate] | 81.7 ± 8.36 | 78.5 ± 6.73 | 68.8 ± 10.4 |
| COc1ccc(-c2cc(OCc3cn([C@@H]4O[C@H](COC(C)=O)[C@H](OC(C)=O)[C@H](OC(C)=O)[C@H]4OC(C)=O)nn3)n3nccc3n2)cc1 [Compound 10b, (2R,3S,4S,5R,6R)-2-(acetoxymethyl)-6-(4-(((5-(4-methoxyphenyl)pyrazolo[1,5-a]pyrimidin-7-yl)oxy)methyl)-1H-1,2,3-triazol-1-yl)tetrahydro-2H-pyran-3,4,5-triyl triacetate] | 92.5 ± 9.39 | 85.2 ± 8.63 | 70.5 ± 6.24 |
| CC(=O)OC[C@H]1O[C@@H](n2cc(COc3cc(-c4ccc(Br)cc4)nc4ccnn34)nn2)[C@H](OC(C)=O)[C@@H](OC(C)=O)[C@H]1OC(C)=O [Compound 10c, (2R,3S,4S,5R,6R)-2-(acetoxymethyl)-6-(4-(((5-(4-bromophenyl)pyrazolo[1,5-a]pyrimidin-7-yl)oxy)methyl)-1H-1,2,3-triazol-1-yl)tetrahydro-2H-pyran-3,4,5-triyl triacetate] | 79.5 ± 2.43 | 77.8 ± 2.43 | 74 ± 2.62 |
| CC(=O)OC[C@H]1O[C@@H](n2cc(COc3cc(-c4ccc(F)cc4)nc4ccnn34)nn2)[C@H](OC(C)=O)[C@@H](OC(C)=O)[C@H]1OC(C)=O [Compound 10e, (2R,3S,4S,5R,6R)-2-(acetoxymethyl)-6-(4-(((5-(4-fluorophenyl)pyrazolo[1,5-a]pyrimidin-7-yl)oxy)methyl)-1H-1,2,3-triazol-1-yl)tetrahydro-2H-pyran-3,4,5-triyl triacetate] | 78.4 ± 9.97 | 68.6 ± 10.1 | 71.3 ± 6.17 |
| CC(=O)OC[C@H]1O[C@@H](n2cc(COc3cc(-c4ccc(C(C)C)cc4)nc4ccnn34)nn2)[C@H](OC(C)=O)[C@@H](OC(C)=O)[C@H]1OC(C)=O [Compound 10g, (2R,3S,4S,5R,6R)-2-(acetoxymethyl)-6-(4-(((5-(4-isopropylphenyl)pyrazolo[1,5-a]pyrimidin-7-yl)oxy)methyl)-1H-1,2,3-triazol-1-yl)tetrahydro-2H-pyran-3,4,5-triyl triacetate] | 85.2 ± 3.5 | 79.5 ± 8.96 | 78.7 ± 2.56 |
| CC(=O)OC[C@H]1O[C@@H](n2cc(COc3cc(-c4ccc5ccccc5c4)nc4ccnn34)nn2)[C@H](OC(C)=O)[C@@H](OC(C)=O)[C@H]1OC(C)=O [Compound 10h, (2R,3S,4S,5R,6R)-2-(acetoxymethyl)-6-(4-(((5-(naphthalen-2-yl)pyrazolo[1,5-a]pyrimidin-7-yl)oxy)methyl)-1H-1,2,3-triazol-1-yl)tetrahydro-2H-pyran-3,4,5-triyl triacetate] | 75 ± 8.31 | 89.6 ± 9.91 | 57.7 ± 10.8 |
| CC(=O)OC[C@H]1O[C@@H](n2cc(COc3cc(-c4ccc5c(c4)OCO5)nc4ccnn34)nn2)[C@H](OC(C)=O)[C@@H](OC(C)=O)[C@H]1OC(C)=O [Compound 10i, (2R,3S,4S,5R,6R)-2-(acetoxymethyl)-6-(4-(((5-(benzo[d][1,3]dioxol-5-yl)pyrazolo[1,5-a]pyrimidin-7-yl)oxy)methyl)-1H-1,2,3-triazol-1-yl)tetrahydro-2H-pyran-3,4,5-triyl triacetate] | 100 ± 9.67 | 99.25 ± 0.34 | 98.5 ± 1.88 |
| CC(=O)OC[C@H]1O[C@H](n2cc(COc3cc(-c4ccc(C)cc4)nc4ccnn34)nn2)[C@@H](OC(C)=O)[C@@H](OC(C)=O)[C@@H]1OC(C)=O [Compound 11a, (2R,3R,4S,5S,6S)-2-(acetoxymethyl)-6-(4-(((5-(p-tolyl)pyrazolo[1,5-a]pyrimidin-7-yl)oxy)methyl)-1H-1,2,3-triazol-1-yl)tetrahydro-2H-pyran-3,4,5-triyl triacetate] | 98 ± 7.7 | 91.8 ± 7.09 | 96.7 ± 9.12 |
| COc1ccc(-c2cc(OCc3cn([C@H]4O[C@H](COC(C)=O)[C@@H](OC(C)=O)[C@H](OC(C)=O)[C@@H]4OC(C)=O)nn3)n3nccc3n2)cc1 [Compound 11b, (2R,3R,4S,5S,6S)-2-(acetoxymethyl)-6-(4-(((5-(4-methoxyphenyl)pyrazolo[1,5-a]pyrimidin-7-yl)oxy)methyl)-1H-1,2,3-triazol-1-yl)tetrahydro-2H-pyran-3,4,5-triyl triacetate] | 99.5 ± 10.2 | 95.2 ± 10.6 | 70.4 ± 10.5 |
| CC(=O)OC[C@H]1O[C@H](n2cc(COc3cc(-c4ccc(Br)cc4)nc4ccnn34)nn2)[C@@H](OC(C)=O)[C@@H](OC(C)=O)[C@@H]1OC(C)=O [Compound 11c, (2R,3R,4S,5S,6S)-2-(acetoxymethyl)-6-(4-(((5-(4-bromophenyl)pyrazolo[1,5-a]pyrimidin-7-yl)oxy)methyl)-1H-1,2,3-triazol-1-yl)tetrahydro-2H-pyran-3,4,5-triyl triacetate] | 81.3 ± 7.65 | 76.5 ± 6.58 | 72.5 ± 8.45 |
| CC(=O)OC[C@H]1O[C@H](n2cc(COc3cc(-c4ccc(Cl)cc4)nc4ccnn34)nn2)[C@@H](OC(C)=O)[C@@H](OC(C)=O)[C@@H]1OC(C)=O [Compound 11d, (2R,3R,4S,5S,6S)-2-(acetoxymethyl)-6-(4-(((5-(4-chlorophenyl)pyrazolo[1,5-a]pyrimidin-7-yl)oxy)methyl)-1H-1,2,3-triazol-1-yl)tetrahydro-2H-pyran-3,4,5-triyl triacetate] | 95.8 ± 5.85 | 92.1 ± 6 | 89 ± 1.1 |
| CC(=O)OC[C@H]1O[C@H](n2cc(COc3cc(-c4ccc(F)cc4)nc4ccnn34)nn2)[C@@H](OC(C)=O)[C@@H](OC(C)=O)[C@@H]1OC(C)=O [Compound 11e, (2R,3R,4S,5S,6S)-2-(acetoxymethyl)-6-(4-(((5-(4-fluorophenyl)pyrazolo[1,5-a]pyrimidin-7-yl)oxy)methyl)-1H-1,2,3-triazol-1-yl)tetrahydro-2H-pyran-3,4,5-triyl triacetate] | 98.4 ± 3.62 | 90.1 ± 6.77 | 88.6 ± 6.27 |
| CC(=O)OC[C@H]1O[C@H](n2cc(COc3cc(-c4ccc(C(F)(F)F)cc4)nc4ccnn34)nn2)[C@@H](OC(C)=O)[C@@H](OC(C)=O)[C@@H]1OC(C)=O [Compound 11f, (2R,3R,4S,5S,6S)-2-(acetoxymethyl)-6-(4-(((5-(4-(trifluoromethyl)phenyl)pyrazolo[1,5-a]pyrimidin-7-yl)oxy)methyl)-1H-1,2,3-triazol-1-yl)tetrahydro-2H-pyran-3,4,5-triyl triacetate] | 79.6 ± 4.7 | 74.5 ± 4.44 | 86.5 ± 7.27 |
| CC(=O)OC[C@H]1O[C@H](n2cc(COc3cc(-c4ccc5ccccc5c4)nc4ccnn34)nn2)[C@@H](OC(C)=O)[C@@H](OC(C)=O)[C@@H]1OC(C)=O [Compound 11h, (2R,3R,4S,5S,6S)-2-(acetoxymethyl)-6-(4-(((5-(naphthalen-2-yl)pyrazolo[1,5-a]pyrimidin-7-yl)oxy)methyl)-1H-1,2,3-triazol-1-yl)tetrahydro-2H-pyran-3,4,5-triyl triacetate] | 101 ± 9.28 | 89.8 ± 2.22 | 82.5 ± 5.45 |
